Results published in ChEMBL document CHEMBL4261615, “Design, synthesis, biological evaluation and cellular imaging of imidazo[4,5-b]pyridine derivatives as potent and selective TAM inhibitors” (Bioorg Med Chem, 2018).
The source made the active and inactive calls. The rule behind the calls is not given here.

Legend:
[1] = molecular target: Tyrosine-protein kinase receptor UFO (Homo sapiens) (UniProt P30530); assay: Binding affinity to human AXL (R497 to Y821 residues) expressed in bacterial expression system assessed as fraction of unbound kinase to substrate at 0.1 uM after 1 hr by KinomeScan assay
Chain of Tyrosine-protein kinase receptor UFO (Homo sapiens) (P30530 whole entry, the tested form may be a part): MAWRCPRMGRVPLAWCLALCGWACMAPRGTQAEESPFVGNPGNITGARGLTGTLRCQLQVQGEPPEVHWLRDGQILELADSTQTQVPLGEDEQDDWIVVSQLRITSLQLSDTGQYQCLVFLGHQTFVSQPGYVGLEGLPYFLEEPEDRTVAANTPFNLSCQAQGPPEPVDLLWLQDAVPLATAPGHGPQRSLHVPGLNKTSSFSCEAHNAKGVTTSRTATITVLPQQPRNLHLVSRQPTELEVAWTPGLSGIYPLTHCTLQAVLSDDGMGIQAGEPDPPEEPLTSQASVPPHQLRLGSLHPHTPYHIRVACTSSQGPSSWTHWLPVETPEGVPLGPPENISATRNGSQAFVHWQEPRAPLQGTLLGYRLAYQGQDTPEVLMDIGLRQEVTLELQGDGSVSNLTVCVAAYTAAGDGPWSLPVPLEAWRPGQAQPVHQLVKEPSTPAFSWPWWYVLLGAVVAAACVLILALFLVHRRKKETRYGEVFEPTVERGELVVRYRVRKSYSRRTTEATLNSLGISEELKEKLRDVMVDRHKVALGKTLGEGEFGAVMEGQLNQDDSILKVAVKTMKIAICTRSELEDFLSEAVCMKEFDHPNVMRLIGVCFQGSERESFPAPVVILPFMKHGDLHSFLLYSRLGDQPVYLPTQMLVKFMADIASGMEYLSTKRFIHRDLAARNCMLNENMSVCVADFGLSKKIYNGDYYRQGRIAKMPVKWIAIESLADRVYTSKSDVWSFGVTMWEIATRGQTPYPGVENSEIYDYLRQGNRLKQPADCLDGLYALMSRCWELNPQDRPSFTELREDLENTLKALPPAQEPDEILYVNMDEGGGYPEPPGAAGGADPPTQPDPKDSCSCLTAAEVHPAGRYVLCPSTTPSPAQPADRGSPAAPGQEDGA

[2] = molecular target: Tyrosine-protein kinase receptor UFO (Homo sapiens) (UniProt P30530); assay: Binding affinity to human AXL (R497 to Y821 residues) expressed in bacterial expression system assessed as fraction of unbound kinase to substrate at 10 uM after 1 hr by KinomeScan assay
[3] = molecular target: Tyrosine-protein kinase ABL1 (Homo sapiens) (UniProt P00519); assay: Binding affinity to human wild type ABL1 (229 to 512 residues) expressed in mammalian expression system assessed as fraction of unbound kinase to substrate at 1 uM after 1 hr by KinomeScan assay
Chain of Tyrosine-protein kinase ABL1 (Homo sapiens) (P00519 whole entry, the tested form may be a part): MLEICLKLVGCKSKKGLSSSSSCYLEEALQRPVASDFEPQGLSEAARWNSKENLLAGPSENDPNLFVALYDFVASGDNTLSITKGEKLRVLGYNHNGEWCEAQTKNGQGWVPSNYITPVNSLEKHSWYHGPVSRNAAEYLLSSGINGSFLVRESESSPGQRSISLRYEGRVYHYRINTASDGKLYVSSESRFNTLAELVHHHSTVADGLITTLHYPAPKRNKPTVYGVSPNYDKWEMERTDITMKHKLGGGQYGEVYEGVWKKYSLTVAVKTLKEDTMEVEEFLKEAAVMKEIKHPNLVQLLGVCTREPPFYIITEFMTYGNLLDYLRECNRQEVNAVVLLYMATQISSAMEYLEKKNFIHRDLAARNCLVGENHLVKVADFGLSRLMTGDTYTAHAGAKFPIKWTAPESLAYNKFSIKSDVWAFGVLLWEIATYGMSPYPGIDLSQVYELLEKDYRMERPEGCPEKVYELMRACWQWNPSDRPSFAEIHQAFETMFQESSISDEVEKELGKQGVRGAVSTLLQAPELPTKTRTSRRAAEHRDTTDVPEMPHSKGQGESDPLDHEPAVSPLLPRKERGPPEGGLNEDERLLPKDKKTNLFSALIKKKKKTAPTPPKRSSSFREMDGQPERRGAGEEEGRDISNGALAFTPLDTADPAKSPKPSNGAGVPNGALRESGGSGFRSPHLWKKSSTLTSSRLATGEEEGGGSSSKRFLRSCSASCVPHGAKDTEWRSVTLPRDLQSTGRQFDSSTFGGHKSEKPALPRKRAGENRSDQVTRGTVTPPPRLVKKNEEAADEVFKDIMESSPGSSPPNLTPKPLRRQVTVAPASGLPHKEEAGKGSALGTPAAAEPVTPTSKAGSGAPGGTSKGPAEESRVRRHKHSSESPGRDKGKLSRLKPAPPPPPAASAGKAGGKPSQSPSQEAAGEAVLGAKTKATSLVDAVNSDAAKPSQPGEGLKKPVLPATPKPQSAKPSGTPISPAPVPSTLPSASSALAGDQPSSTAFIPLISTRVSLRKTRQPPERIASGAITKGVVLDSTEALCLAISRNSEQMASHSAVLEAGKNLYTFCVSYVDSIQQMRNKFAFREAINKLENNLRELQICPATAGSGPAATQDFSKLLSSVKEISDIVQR

[4] = molecular target: Glycogen synthase kinase-3 beta (Homo sapiens) (UniProt P49841); assay: Binding affinity to full length wild type human GSK3beta (M1 to T433 residues) expressed in mammalian expression system assessed as fraction of unbound kinase to substrate at 10 uM after 1 hr by KinomeScan assay
Chain of Glycogen synthase kinase-3 beta (Homo sapiens) (P49841 whole entry, looked up, the tested form may be a part): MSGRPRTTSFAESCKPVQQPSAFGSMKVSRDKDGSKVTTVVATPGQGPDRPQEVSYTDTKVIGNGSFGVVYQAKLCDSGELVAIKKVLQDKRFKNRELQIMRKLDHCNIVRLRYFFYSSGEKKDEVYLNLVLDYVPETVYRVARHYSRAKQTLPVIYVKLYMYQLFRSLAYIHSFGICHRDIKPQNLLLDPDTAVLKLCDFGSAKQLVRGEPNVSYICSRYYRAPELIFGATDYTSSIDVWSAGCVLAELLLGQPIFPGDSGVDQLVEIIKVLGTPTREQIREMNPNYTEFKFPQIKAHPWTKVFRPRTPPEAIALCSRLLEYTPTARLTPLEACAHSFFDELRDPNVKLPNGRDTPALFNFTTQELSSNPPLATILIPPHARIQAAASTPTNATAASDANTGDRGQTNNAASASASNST

[5] = molecular target: T1, Tyrosine-protein kinase Mer (Homo sapiens) (UniProt Q12866); assay: Binding affinity to wild-type partial length human MER (R557 to L884 residues) expressed in bacterial expression system assessed as fraction of unbound kinase to substrate at 10 uM after 1 hr by KinomeScan assay
T1 sequence (whole entry): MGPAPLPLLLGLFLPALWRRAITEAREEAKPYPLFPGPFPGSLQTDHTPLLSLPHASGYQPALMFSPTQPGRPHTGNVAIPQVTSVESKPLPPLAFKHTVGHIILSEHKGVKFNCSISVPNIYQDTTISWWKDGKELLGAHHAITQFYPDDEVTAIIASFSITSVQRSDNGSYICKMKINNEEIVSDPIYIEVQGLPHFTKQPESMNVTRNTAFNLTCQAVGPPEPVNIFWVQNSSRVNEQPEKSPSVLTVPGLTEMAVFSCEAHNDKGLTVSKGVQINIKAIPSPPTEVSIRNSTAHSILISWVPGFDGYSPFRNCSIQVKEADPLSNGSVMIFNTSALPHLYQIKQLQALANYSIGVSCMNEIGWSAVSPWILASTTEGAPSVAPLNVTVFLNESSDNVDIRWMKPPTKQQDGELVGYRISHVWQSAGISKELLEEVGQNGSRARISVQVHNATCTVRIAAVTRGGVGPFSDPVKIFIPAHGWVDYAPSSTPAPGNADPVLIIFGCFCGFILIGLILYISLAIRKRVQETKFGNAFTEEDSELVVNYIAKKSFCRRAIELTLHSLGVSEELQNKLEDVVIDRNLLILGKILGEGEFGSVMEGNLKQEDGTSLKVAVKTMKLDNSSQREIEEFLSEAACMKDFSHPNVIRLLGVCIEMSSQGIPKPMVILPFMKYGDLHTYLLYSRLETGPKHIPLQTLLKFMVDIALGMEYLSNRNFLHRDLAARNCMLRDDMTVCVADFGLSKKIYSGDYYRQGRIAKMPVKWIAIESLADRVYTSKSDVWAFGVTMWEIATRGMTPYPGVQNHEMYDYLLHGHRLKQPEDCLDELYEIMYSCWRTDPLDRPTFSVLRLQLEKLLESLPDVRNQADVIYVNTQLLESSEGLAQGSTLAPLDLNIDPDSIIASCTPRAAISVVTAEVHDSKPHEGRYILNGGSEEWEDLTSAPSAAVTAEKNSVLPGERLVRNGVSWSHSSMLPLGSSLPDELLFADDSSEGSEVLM

[6] = molecular target: Tyrosine-protein kinase receptor UFO (Homo sapiens) (UniProt P30530); assay: Binding affinity to human AXL (R497 to Y821 residues) expressed in bacterial expression system assessed as fraction of unbound kinase to substrate at 1 uM after 1 hr by KinomeScan assay
[7] = molecular target: Fibroblast growth factor receptor 1 (Homo sapiens) (UniProt P11362); assay: Binding affinity to wild-type human partial length FGFR1 (P357 to V669 residues) expressed in bacterial expression system assessed as fraction of unbound kinase to substrate at 10 uM after 1 hr by KinomeScan assay
Chain of Fibroblast growth factor receptor 1 (Homo sapiens) (P11362 22-822 limits assumed): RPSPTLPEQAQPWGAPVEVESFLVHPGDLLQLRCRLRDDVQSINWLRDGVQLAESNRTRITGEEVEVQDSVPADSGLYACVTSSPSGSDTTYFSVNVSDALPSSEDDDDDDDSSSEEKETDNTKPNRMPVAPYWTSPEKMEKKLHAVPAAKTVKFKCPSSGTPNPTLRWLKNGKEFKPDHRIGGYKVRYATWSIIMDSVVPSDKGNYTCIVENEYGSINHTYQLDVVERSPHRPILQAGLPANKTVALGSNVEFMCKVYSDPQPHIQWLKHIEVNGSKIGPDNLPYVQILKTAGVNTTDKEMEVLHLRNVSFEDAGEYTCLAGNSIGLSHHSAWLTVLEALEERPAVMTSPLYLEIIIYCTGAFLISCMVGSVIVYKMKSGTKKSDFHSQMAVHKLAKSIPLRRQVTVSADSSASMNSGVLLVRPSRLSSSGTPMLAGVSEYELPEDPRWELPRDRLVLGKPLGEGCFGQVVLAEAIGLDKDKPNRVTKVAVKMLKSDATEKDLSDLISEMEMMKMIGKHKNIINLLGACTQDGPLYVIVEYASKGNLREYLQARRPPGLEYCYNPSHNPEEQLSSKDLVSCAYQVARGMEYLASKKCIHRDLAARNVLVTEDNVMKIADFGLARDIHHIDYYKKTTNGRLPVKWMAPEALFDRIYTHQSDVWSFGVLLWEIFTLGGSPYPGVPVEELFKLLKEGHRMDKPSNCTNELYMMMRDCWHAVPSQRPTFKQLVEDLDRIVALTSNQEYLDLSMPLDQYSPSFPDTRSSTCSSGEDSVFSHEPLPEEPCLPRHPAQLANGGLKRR

[8] = molecular target: Glycogen synthase kinase-3 beta (Homo sapiens) (UniProt P49841); assay: Binding affinity to full length wild type human GSK3beta (M1 to T433 residues) expressed in mammalian expression system assessed as fraction of unbound kinase to substrate at 1 uM after 1 hr by KinomeScan assay
[9] = molecular target: T2, Tyrosine-protein kinase receptor TYRO3 (Homo sapiens) (UniProt Q06418); assay: Inhibition of recombinant GST-tagged human Tyro3 (451 to 890 residues) cytoplasmic domain expressed in Baculovirus expression system using poly (Glu-Ala-Tyr) peptide as substrate after 1.5 hrs by ELISA
T2 sequence (whole entry): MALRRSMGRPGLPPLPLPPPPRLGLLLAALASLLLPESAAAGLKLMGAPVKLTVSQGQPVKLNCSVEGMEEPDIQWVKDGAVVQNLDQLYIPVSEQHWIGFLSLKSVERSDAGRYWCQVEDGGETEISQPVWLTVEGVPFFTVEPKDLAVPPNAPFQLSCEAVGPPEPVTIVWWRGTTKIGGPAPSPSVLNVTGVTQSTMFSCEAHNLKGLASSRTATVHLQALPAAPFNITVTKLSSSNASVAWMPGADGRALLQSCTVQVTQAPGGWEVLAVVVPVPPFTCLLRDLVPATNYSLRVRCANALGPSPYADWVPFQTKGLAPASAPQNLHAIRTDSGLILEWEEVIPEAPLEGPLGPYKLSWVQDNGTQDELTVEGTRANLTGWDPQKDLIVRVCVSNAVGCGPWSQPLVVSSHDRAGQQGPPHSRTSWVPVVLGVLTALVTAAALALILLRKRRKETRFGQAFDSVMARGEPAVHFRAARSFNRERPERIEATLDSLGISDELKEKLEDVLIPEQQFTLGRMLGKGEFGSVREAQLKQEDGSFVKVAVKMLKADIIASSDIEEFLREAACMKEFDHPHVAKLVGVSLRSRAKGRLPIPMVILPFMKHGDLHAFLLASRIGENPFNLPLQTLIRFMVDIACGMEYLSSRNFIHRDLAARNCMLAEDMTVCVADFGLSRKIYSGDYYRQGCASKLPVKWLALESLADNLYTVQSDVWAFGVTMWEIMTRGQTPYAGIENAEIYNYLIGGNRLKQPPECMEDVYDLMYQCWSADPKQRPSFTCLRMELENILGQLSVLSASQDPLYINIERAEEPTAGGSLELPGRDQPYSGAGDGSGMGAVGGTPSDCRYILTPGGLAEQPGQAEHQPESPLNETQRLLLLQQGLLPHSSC

[10] = molecular target: Serine/threonine-protein kinase B-raf (Homo sapiens) (UniProt P15056); assay: Binding affinity to wild-type human partial length BRAF (S429 to E741 residues) expressed in mammalian expression system assessed as fraction of unbound kinase to substrate at 0.1 uM after 1 hr by KinomeScan assay
Chain of Serine/threonine-protein kinase B-raf (Homo sapiens) (P15056 whole entry, the tested form may be a part): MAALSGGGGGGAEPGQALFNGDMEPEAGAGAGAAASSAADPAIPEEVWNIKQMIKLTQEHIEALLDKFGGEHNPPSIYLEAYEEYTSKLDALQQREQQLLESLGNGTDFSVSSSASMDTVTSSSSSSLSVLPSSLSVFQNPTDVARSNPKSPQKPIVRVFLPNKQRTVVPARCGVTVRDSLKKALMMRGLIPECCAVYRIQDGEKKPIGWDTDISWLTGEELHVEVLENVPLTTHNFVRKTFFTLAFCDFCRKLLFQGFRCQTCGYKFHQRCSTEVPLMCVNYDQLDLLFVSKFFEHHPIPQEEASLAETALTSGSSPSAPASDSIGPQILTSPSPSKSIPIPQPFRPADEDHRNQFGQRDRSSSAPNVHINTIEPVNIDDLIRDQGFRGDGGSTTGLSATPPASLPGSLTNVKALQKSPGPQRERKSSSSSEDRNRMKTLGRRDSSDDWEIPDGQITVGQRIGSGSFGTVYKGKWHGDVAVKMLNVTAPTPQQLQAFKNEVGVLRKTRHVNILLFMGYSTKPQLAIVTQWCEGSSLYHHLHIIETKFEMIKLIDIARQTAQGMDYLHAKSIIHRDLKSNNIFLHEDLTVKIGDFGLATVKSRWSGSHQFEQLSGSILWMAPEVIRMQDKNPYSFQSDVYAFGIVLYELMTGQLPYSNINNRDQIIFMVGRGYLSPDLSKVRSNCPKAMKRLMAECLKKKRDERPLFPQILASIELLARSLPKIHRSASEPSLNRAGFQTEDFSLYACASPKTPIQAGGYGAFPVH

Activity [1] [%] | Activity [2] [%] | Activity [3] [%] | Activity [4] [%] | Activity [5] [%] | Activity [6] [%] | Activity [7] [%] | Activity [8] [%] | inhibition [9] | Activity [10] [%] | Structure (SMILES)
4 | 90.4 | 0 | 0 | 98.2 | 52 | 11 | 1 | inactive | 0 | O=C(Nc1ccc(Oc2c(Br)cnc3[nH]cnc23)c(F)c1)c1cccn(-c2ccc(F)cc2)c1=O
78 | 93.3 | 13 | 6 | 99.6 | 90.7 | 6 | 5 | Active | 9 | O=C(Nc1ccc(Oc2ccnc3[nH]cnc23)c(F)c1)c1cccn(-c2ccc(F)cc2)c1=O
22 | 90.1 | 1 | 0 | 99.1 | 67 | 15 | 5 | inactive | 0 | Cc1cnc2[nH]cnc2c1Oc1ccc(NC(=O)c2cccn(-c3ccc(F)cc3)c2=O)cc1F
61 | 89 | 3 | 0 | 99.1 | 90 | 1 | 0 | inactive | 0 | CC(C)c1nc2c(Oc3ccc(NC(=O)c4cccn(-c5ccc(F)cc5)c4=O)cc3F)ccnc2[nH]1
